# Results taken from paper PMC4977465, “Repositioning organohalogen drugs: a case study for identification of potent B-Raf V600E inhibitors via docking and bioassay” (Scientific Reports, 2016).
# Like-named read-outs stand apart in the source and are kept apart here.
# Experiments:
# Format in all cases: biochemical
# [1] = molecular target: B-Raf V600E (Homo sapiens, UniProt P15056, V600E); test: ELISA-based assay of inhibitory activity against B-Raf V600E (MEK to p-MEK); conditions: for inhibition at 10 µM: read-out: Inhibition Rate (at 10 μM)
# [2] = molecular target: T1, B-Raf S602A (Homo sapiens, UniProt P15056, S602A); test: ELISA-based assay, single point mutant B-Raf S602A
# T1 construct: B-RAFT508A and B-RAFS602A, residues 433–726; made in house; host or cells: Sf9 insect cells (pFastBac Dual)
# Source text: (§1) The mutant sequence of human BRAF kinase domain (B-RAFT508A and B-RAFS602A, residues 433–726) was inserted into the plasmid of pFastBacTM Dual. Then the recombinant plasmid was transported into the sf9 cells. Mutant protein was expressed and purified respectively.
# [3] = molecular target: T2, B-Raf T508A (Homo sapiens, UniProt P15056, T508A); test: ELISA-based assay, single point mutant B-Raf T508A
# T2 construct: B-RAFT508A and B-RAFS602A, residues 433–726; made in house; host or cells: Sf9 insect cells (pFastBac Dual)
# Source text: as §1
# [4] = molecular target: wild type B-Raf (Homo sapiens, UniProt P15056); test: ELISA-based assay, wild type B-Raf
# Chain of wild type B-Raf (P15056 whole entry): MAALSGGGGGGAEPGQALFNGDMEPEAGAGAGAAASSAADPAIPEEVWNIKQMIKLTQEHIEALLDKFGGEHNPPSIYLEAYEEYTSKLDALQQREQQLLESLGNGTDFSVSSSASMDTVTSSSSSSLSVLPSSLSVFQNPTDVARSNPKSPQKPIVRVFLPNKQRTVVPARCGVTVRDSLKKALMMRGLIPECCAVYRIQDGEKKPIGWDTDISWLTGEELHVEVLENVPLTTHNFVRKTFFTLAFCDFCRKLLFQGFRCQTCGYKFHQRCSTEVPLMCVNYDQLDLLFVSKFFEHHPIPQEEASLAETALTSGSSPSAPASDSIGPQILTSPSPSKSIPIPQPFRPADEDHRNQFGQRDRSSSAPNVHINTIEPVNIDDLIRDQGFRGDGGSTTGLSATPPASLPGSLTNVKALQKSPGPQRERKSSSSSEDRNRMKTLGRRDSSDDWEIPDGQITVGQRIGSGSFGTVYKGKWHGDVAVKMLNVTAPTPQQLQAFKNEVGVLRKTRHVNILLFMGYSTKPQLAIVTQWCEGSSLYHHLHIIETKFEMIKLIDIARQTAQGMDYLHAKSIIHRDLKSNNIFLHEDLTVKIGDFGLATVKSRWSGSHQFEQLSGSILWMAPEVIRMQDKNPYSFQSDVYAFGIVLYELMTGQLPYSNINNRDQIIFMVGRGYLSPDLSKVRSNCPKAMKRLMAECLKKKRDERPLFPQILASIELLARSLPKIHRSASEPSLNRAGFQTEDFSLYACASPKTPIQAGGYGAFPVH
# Chain of B-Raf V600E (P15056 whole entry V600E): as the sequence (P15056 whole entry) above, with V600E counted along it
# T1 sequence (P15056 433-726 S602A): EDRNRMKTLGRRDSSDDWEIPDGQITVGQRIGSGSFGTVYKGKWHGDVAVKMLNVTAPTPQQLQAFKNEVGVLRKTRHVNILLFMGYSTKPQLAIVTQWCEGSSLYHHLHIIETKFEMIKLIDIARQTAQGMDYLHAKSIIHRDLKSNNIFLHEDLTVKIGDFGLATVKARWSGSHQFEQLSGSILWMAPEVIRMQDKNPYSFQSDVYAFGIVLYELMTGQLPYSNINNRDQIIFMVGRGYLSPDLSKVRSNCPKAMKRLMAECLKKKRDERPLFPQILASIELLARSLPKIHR
# T2 sequence (P15056 433-726 T508A): as the sequence (P15056 433-726 S602A) above, with T76A, A170S counted along it
smiles,measurement,setting,value
CCCS(=O)(=O)Nc1ccc(F)c(C(=O)c2c[nH]c3ncc(Cl)cc23)c1F [PLX4720],inhibition at 10 µM,"[1]; B-Raf V600E, 10 μM",82.5%
Cc1cc(C(C#N)c2ccc(Cl)cc2)c(Cl)cc1NC(=O)c1cc(I)cc(I)c1O (centres unmarked) [closantel],IC50,"[1]; B-Raf V600E, read-out: IC50 B-RAF V600E",1.9 µM
same,inhibition at 10 µM,[1],83.9%
same,IC50,"[2]; B-Raf S602A mutant, read-out: IC50 B-RAF S602A",6.35 µM
same,IC50,"[3]; B-Raf T508A mutant, read-out: IC50 B-RAF T508A",5.97 µM
same,IC50,"[4]; wild type B-Raf, read-out: IC50 B-RAF WT",1.89 µM
CC1(C)C(C=C(Cl)Cl)C1C(=O)OC(C#N)c1cccc(Oc2ccccc2)c1 (centres unmarked) [cypermethrin],activity against B-Raf V600E (in words),"[1]; ELISA-based assay, 10 μM",inactive
same,inhibition at 10 µM,[1],17.6%
O=C(Nc1ccc(Oc2ccc(Cl)cc2)c(Cl)c1)c1cc(I)cc(I)c1O [rafoxanide],IC50,[1],0.07 µM
same,inhibition at 10 µM,[1],73.2%
same,IC50,[2],11.4 µM
same,IC50,[3],15.7 µM
same,IC50,[4],1.94 µM
CCCS(=O)(=O)Nc1ccc(F)c(C(=O)c2c[nH]c3ncc(-c4ccc(Cl)cc4)cc23)c1F [vemurafenib],inhibition at 10 µM,"[1]; B-Raf V600E, 10 μM",82.9%
